Reference: US5227490A, “Fibrinogen receptor antagonists” (Merck & Co., Inc., priority 1992, dated 1993)
pIC50: −log10 of the molar value.

System: fibronectin and vitronectin
Experiment: not given
Settings: cited from earlier work

Row | Molecule | activity of the tri-peptide
1 | arginine-glycine-aspartic acid [Arg-Gly-Asp] | low activity

System: gpIIb/IIIa complex
Experiment: not given
Settings: snake venom polypeptides; cited from earlier work

Row | Molecule | affinity for the gpIIb/IIIa complex
2 | Echistatin | high affinity

System: human platelets
Experiment: ADP-stimulated platelet aggregation assay (gel-filtered human platelets)
Type: cell-based
Settings: fibrinogen, CaCl2 1 mM, ADP-initiated, initial rate of increase of light transmittance, read-out: IC50 (inhibition of platelet aggregation)
Description: In addition to the following preparative procedures, several examples of in-vitro bioactivity of compounds within the scope of the present invention are indicated. To illustrate, one test which is used to evaluate fibrinogen receptor antagonist activity is based on evaluation of inhibition of ADP-stimulated platelets. Aggregation requires that fibrinogen bind to and occupy the platelet fibrinogen receptor site. Inhibitors of fibrinogen binding inhibit aggregation. In the ADP-stimulated platelet aggregation assay used to determine inhibition associated with the compounds claimed in the instant invention, human platelets are isolated from fresh blood, collected into acid citrate/dextrose by differential centrifugation followed by gel filtration on Sepharose 2 B in divalent ion-free Tyrode's buffer (pH 7.4) containing 2% bovine serum albumin.
Platelet aggregation is measured at 37° C. in a Chronolog aggregometer. The reaction mixture contains gel-filtered human platelets (2×10^8 per ml), fibrinogen (100 micrograms per ml (ug/ml)), Ca^2+ (1 mM), and the compound to be tested. The aggregation is initiated by adding 10 μM ADP 1 minute after the other components are added. The reaction is then allowed to proceed for at least 2 minutes. The extent of inhibition of aggregation is expressed as the percentage of the rate of aggregation observed in the absence of inhibitor. The IC50 is the dose of a particular compound inhibiting aggregation by 50% relative to a control lacking the compound.
The test procedures employed to measure the anti-platelet aggregating activity of the compounds of the present invention are described below.
Blood was drawn into 0.1 volumes of acid citrate-dextrose (85 mM sodium citrate, 64 mM citric acid, 110 mM dextrose) by venipuncture from normal human volunteers. Platelet-rich plasma was prepared by centrifugation at 400× g for 12 minutes. PGEl (5 mg/ml) was added and platelets were collected by centrifugation at 800× g for 12 minutes. The platelet pellet was resuspended into human platelet buffer (140 mM NaCl, 7.9 mM KCl, 3.3 mM Na2 HPO4, 6 mM HEPES, 2% bovine serum albumin, 0.1% dextrose, pH 7.2) and filtered over Sepharose 2B that was previously equilibrated in human platelet buffer. Human fibrinogen ([…]) and Ca Cl2 (1 mM) were added and aggregation was initiated by the addition of […]. Aggregation was monitored by the initial rate of increase of light transmittance.

Row | pIC50 | Molecule
3 | 5.51 | O=C(NCC(Cc1ccc(OCCCCC2CCNCC2)cc1)C(=O)O)c1ccccc1 (centres unmarked) [CH2 NHC(O)Ph, 2-[4-(4-Piperidin-4-yl)butyloxy]phenylmethyl-3-(benzoylamino)propanoic acid]
4 | 4.74 | O=C(O)C(CNCc1ccccc1)Cc1ccc(OCCCCC2CCNCC2)cc1 (centres unmarked) [CH2 NHCH2 Ph, 2-[4-(4-Piperidin-4-yl)butyloxy]phenylmethyl-3-(benzylamino)propanoic acid]
5 | 5.54 | CCCCS(=O)(=O)NCC(Cc1ccc(OCCCCC2CCNCC2)cc1)C(=O)O (centres unmarked) [CH2 NHSO2 C4 H9, 2-[4-(4-Piperindin-4-yl)butyloxy]phenylmethyl-3-(n-butylsulfonylamino)propanoic acid]
6 | 3.94 | O=C(O)C(Cc1ccccc1)Cc1ccc(OCCCCC2CCNCC2)cc1 (centres unmarked) [CH2 Ph, 3-[4-(4-Piperidin-4-yl)butyloxyphenyl]-2-(benzyl)propanoic acid]
7 | 6.19 | CCCCS(=O)(=O)CC(Cc1ccc(OCCCCC2CCNCC2)cc1)C(=O)O (centres unmarked) [CH2 SO2 C4 H9, 2-[4-(4-Piperidin-4-yl)butyloxy]phenylmethyl-3-(n-butylsulfonyl)propanoic acid]
8 | 5.80 | O=C(O)C(Cc1ccc(OCCCCC2CCNCC2)cc1)CS(=O)(=O)Cc1ccccc1 (centres unmarked) [CH2 SO2 CH2 Ph, 2-[4-(4-N-piperidin-4-ylbutyloxy]phenylmethyl]-3-(benzylsulfonyl)propanoic acid]
9 | 5.24 | COC(=O)C(Cc1ccc(OCCCCC2CCNCC2)cc1)C(=O)O (centres unmarked) [CO2 CH3, 2-(Carbomethoxy)-3-[4-(4-piperidin-4-yl)butyloxyphenyl]propanoic acid]
10 | 5.49 | O=C(O)C(Cc1ccc(OCCCCC2CCNCC2)cc1)C(=O)O [CO2 H, 2-Carboxy-3-[4-(4-Piperidin-4-yl)butyloxyphenyl]propanoic acid]
11 | 5.07 | O=C(O)C(O)Cc1ccc(OCCCCC2CCNCC2)cc1 (centres unmarked) [OH, 2-Hydroxy-3-[4-(4-piperidin-4-yl)butyloxyphenyl]propanoic acid]
